Values quoted from earlier work, collected in US20060204445A1, “Cell scaffold matrices with image contrast agents” (priority 2005, published 2006).

Settings: in vivo

- normal half-life of heparin: 1 to 2 h
Substance: heparin
